Measured values published in PMC4309560, “Creating Novel Activated Factor XI Inhibitors through Fragment Based Lead Generation and Structure Aided Drug Design” (PLoS ONE, 2015).

Experiments:
[1] = target: T1, Human recombinant thrombin (Homo sapiens, UniProt P00734); assay: Thrombin (FIIa) chromogenic assay; type: biochemical; conditions: read-out: FIIa % inhibition at 99 μM
T1 construct: Human recombinant thrombin was prepared in house; made in house
Protocol: (§1) Enzymatic assay. […] Selected compounds were also screened against other serine proteases to evaluate their selectivity profiles.
(§2) Once the compounds were synthesized and characterized, enzymatic assays were performed to evaluate the inhibitory activity of the resulting compounds against FXIa and other serine proteases. […] IC50 values for the compounds were determined using equation: Q= V/(1+([I]/IC50)^n) Q denotes the assay readout, V denotes the uninhibited velocity of the enzyme, [I] denotes the inhibitor concentration, n denotes the slope and IC50 is the inhibitor concentration at V/2.
(§3) [S] denotes the substrate concentration.
Thrombin. Human recombinant thrombin was prepared in house.

[2] = system: rat hepatocytes; assay: Rat hepatocyte metabolic stability assay; type: in vitro ADME
Protocol: Rat hepatocyte metabolic stability was determined in accordance with the method described by Jacobson et al.. Cryo preserved hepatocytes at a concentration of 10^6 viable cells/mL were used. After thawing, hepatocytes were incubated for 10 min to warm to 37°C and test compounds, dissolved in acetonitrile, were added to give a final concentration of 1 μM. At 0.5, 5, 15, 30, 45, 60, 80, 100 and 120 min, the incubation system was mixed and 20 μL aliquots were transferred at each time point to wells in a separate plate filled with 80 μL acetonitrile to stop the reaction. The quenching plate was then vortexed followed by centrifugation, and supernatants were analyzed by LC/MS/MS. Peak areas were determined from extracted ion chromatograms, and the in vitro intrinsic clearance (in vitro CLint, in μL/min/10^6 cells) of parent compound was calculated from the slope in the regression analysis of the natural logarithm of parent concentration vs. time curve.

[3] = target: T2, Human plasmin (Homo sapiens, UniProt P00747); assay: Plasmin chromogenic assay; type: biochemical; conditions: read-out: Plasmin % inhibition at 99 μM
T2 construct: Human plasmin was from Enzyme Research Laboratories, Swansea, UK; purchased Enzyme Research Laboratories, Swansea, UK
T2 sequence (P00747 581-810 limits assumed): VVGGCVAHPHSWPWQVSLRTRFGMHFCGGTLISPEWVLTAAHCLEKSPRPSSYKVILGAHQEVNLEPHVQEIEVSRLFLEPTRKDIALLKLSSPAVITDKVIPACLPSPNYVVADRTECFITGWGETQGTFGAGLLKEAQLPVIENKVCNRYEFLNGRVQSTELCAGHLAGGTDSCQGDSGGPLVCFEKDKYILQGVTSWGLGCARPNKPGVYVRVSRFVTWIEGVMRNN
T2 sequence (P00747 97-580 partner limits assumed): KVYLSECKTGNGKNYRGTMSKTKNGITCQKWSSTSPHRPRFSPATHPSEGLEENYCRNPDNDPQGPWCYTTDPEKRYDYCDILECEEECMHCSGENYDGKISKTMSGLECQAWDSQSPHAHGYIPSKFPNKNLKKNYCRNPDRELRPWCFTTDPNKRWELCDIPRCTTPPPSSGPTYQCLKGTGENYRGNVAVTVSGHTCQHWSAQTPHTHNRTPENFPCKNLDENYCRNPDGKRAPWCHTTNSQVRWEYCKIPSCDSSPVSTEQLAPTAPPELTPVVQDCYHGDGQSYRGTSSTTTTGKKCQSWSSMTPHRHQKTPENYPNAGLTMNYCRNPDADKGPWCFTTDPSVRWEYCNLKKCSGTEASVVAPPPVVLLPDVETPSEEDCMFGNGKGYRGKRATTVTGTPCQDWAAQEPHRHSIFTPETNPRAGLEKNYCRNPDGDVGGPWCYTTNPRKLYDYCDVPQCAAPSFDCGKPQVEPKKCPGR
Protocol: as §1, §2, §3
Plasmin. Human plasmin was from Enzyme Research Laboratories, Swansea, UK.

[4] = target: T3, Human PKK (Homo sapiens, UniProt P03952); assay: PKK (plasma kallikrein) chromogenic assay; type: biochemical
T3 construct: trypsin, plasma kallikrein (PKK), FIXa; purchased Calbiochem, Darmstadt, Germany
T3 sequence (P03952 391-638 limits assumed): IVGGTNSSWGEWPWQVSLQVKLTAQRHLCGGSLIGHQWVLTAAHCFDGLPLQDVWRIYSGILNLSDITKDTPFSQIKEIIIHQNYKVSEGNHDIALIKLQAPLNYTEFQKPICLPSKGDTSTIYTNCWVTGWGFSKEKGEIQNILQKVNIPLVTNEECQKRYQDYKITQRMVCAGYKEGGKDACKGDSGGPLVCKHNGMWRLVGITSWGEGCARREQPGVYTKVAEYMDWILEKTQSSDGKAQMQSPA
T3 sequence (P03952 20-390 partner limits assumed): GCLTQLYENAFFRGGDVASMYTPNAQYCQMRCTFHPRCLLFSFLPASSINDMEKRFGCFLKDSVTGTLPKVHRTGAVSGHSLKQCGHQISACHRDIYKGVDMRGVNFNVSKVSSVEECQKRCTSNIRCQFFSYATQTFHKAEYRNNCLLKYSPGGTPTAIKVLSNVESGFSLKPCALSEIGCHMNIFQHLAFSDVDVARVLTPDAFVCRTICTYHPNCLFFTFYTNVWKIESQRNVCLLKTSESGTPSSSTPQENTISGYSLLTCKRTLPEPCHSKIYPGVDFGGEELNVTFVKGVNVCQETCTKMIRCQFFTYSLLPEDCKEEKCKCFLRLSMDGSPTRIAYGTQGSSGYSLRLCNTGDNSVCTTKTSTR
Protocol: as §1, §2, §3
PKK. Human PKK was from Calbiochem, Darmstadt, Germany.

[5] = target: Human tPA (Homo sapiens, UniProt P00750); assay: biochemical; conditions: read-out: tPA % inhibition at 99 μM
Sequence of Human tPA (P00750 36-562): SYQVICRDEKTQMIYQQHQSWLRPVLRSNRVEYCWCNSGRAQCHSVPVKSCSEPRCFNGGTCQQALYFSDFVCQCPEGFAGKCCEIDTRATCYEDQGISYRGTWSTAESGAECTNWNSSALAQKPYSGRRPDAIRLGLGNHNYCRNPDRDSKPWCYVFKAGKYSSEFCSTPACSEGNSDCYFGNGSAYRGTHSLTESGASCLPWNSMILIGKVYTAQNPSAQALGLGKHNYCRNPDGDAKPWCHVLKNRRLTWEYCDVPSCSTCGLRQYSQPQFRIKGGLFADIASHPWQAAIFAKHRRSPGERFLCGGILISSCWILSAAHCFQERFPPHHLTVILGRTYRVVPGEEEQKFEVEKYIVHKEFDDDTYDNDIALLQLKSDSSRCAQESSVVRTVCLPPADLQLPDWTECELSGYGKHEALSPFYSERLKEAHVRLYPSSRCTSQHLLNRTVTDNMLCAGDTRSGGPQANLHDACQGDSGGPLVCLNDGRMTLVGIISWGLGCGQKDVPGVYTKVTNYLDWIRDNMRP
Protocol: as §1, §2
tPa. Human tPA was from Biopool, Umeå, Sweden.

[6] = system: rat FXIa; assay: Species selectivity: rat FXIa potency; type: biochemical; conditions: rat vs human FXIa
[7] = target: Human FXa (Homo sapiens, UniProt P00742); assay: biochemical; conditions: read-out: FXa % inhibition at 99 μM
Sequence of Human FXa (P00742 235-488 limits assumed): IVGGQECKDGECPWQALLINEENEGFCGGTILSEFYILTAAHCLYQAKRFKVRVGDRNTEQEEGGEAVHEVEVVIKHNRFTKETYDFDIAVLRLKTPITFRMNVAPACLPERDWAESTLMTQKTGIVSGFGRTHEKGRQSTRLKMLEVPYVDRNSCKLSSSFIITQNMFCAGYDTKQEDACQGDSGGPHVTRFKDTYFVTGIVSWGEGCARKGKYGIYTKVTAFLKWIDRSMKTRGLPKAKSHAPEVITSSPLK
Sequence of Human FXa (P00742 41-179 partner limits assumed): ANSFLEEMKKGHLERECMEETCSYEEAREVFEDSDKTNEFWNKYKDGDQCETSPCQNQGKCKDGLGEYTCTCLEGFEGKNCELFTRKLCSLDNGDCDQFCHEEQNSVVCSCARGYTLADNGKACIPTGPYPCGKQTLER
Protocol: as §1, §2

[8] = target: Human FIXa (Homo sapiens, UniProt P00740); assay: biochemical; conditions: read-out: FIXa % inhibition at 99 μM
Sequence of Human FIXa (P00740 227-461 limits assumed): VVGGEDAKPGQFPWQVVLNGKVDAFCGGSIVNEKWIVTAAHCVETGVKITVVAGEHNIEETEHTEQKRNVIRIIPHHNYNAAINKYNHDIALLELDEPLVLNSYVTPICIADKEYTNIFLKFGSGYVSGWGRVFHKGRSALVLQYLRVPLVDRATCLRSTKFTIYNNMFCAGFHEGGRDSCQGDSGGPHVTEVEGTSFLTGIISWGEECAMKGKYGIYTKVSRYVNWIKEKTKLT
Sequence of Human FIXa (P00740 47-191 partner limits assumed): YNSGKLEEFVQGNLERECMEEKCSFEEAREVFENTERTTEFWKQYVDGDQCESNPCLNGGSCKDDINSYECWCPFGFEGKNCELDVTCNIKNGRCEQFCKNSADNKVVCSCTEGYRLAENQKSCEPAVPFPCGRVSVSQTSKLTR
Protocol: as §1, §2

[9] = target: T4, FXIa CD (Homo sapiens, UniProt P03951, C500S/K455A/S452A/T493A); assay: FXIa surface plasmon resonance (Biacore) inhibition in solution assay; type: binding
T4 construct: purification of the catalytic domain (residues 370–607) was carried out as described by Jin et al; made in house
T4 sequence (P03951 388-625 S452A/K455A/T493A/C500S): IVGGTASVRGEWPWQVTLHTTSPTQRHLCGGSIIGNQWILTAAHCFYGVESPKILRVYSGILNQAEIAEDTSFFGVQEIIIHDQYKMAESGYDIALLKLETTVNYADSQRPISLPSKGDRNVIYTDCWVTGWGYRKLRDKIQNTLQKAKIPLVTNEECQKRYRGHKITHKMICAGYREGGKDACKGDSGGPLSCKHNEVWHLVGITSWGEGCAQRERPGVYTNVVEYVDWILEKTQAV
Excerpt: SPR. […] The SPR data were then used to rank and select compounds for X-ray crystallography experiments. The SPR method was based on an inhibition in solution assay in which compound 4, immobilized on the biosensor surface, served as a probe for the FXIa catalytic site. […] Fig. 4 illustrates the design of compound 4 based on the crystal structure of FXIa in complex with compound 1. Since any ligand that binds to the S1 pocket competes with compound 4 for binding to FXIa CD, it is possible to derive the K D for that ligand [60]. The initial binding rate of the protein to compound 4, K on, was used to determine the percentage of free protein in solution which changed by varying the concentration of the competing ligand. The free protein concentration was plotted against the logarithm of the ligand concentration and a sigmoidal dose–response curve-fit model was applied to determine the K D-value.
The tethered free amine ligand 4 was covalently linked to the dextran layer on the CM5 sensor chip (GE Healthcare/Biacore) using the Amine Coupling Kit (Healthcare/Biacore) and performed according to the manufacturer’s recommendations. Carboxyl groups on the dextran layer were activated by injecting a 1:1 mixture of 0.5 M N-ethyl-N’ (3-dimethylaminopropyl)-carbodiimide and 0.5 M N-hydroxysuccinimide at 10 μL/min for 7 min. The activated carboxyl groups on the control channels were blocked by injecting a 1 M ethanolamine solution for 7 min at 10 μL/min. […] The remaining activated groups were blocked with 1 M ethanolamine. Compounds were tested in a concentration response curve. The compounds were serially diluted 1:3 in DMSO to form a 10-point concentration response curve with 5 mM for the highest concentration. The FXIa CD was added to the plate at a final concentration of 50 nM and the mixture was incubated for 15 min at RT. The plate was then sealed and placed in the Biacore 3000 instrument. Samples were injected at 20 μL/min for 2 min. […] The value used to calculate percent inhibition of binding was the slope of the response measured 8 s after the start of the injection. […]

[10] = target: T5, Human FXIa (Homo sapiens, UniProt P03951); assay: FXIa enzymatic chromogenic assay; type: biochemical
T5 construct: purchased HTI, Essex Junction, USA
T5 sequence (P03951 388-625): as the sequence (P03951 388-625 S452A/K455A/T493A/C500S) above, with A65S, A68K, A106T, S113C counted along it
T5 sequence (P03951 19-387): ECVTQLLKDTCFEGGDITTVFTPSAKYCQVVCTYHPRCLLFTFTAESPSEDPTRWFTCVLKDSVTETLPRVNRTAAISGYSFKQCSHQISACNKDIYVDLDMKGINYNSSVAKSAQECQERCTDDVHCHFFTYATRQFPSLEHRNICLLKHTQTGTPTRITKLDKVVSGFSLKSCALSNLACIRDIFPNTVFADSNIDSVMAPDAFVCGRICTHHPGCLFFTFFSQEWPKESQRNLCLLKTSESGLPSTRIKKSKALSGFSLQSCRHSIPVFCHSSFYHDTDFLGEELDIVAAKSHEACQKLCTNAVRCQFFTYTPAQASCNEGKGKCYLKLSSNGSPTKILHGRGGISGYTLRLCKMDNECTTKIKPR
Protocol: as §1, §2, §3

[11] = In vivo rat PK; conditions: female, Sprague Dawley, plasma, intravenous; rat in vivo; read-out: Rat CL (in vivo clearance)
Protocol: Two days prior to dosing, female Sprague Dawley rats were prepared by cannulation of the left carotid artery for blood sampling and by cannulation of the right jugular vein for intravenous administration. The catheters were filled with heparin (100 IU/mL), exteriorized at the nape of the neck and sealed. The surgery was performed under isoflurane (Forene®, Abbott) anesthesia. After surgery the rats were housed individually and had free access to food and water. About 16 h prior to dosing the animals were deprived of food, and fasted until 4 h after dosing. The rats had free access to drinking water during the experiment. On the experiment day, the test item formulation was administered orally by gavage or intravenously in the jugular vein. At pre-defined time points, blood samples of about 0.150 mL were withdrawn from the carotid artery up to 24h after dosing. A total of 10 samples were withdrawn. The blood samples were collected in heparinized plastic tubes and centrifuged, within 30 min, for five min at 10 000 g and +4°C. The plasma was transferred to a 96 well plate and stored at -20°C until analysis by LC/MS/MS. The studies were approved by the Göteborg Animal Research Ethical Board.

## O=C(N[C@@H](Cc1ccccc1)C(=O)NCc1cc(=O)[nH]c2ccc(Cl)cc12)c1ccc2[nH]c(=O)cc(O)c2c1 [Compound 13, (S)-N-(1-{(6-Chloro-2-oxo-1,2-dihydroquinolin-4-yl)methylamino}-1-oxo-3-phenylpropan-2-yl)-4-hydroxy-2-oxo-1,2-dihydroquinoline-6-carboxamide]
[1]
  inhibition at 99 µM: 11%
[2]
  Rat CLint: 22 μL/min/ 1·10^6 cells
[3]
  inhibition at 99 µM: 14%
[4]
  IC50: 27 nM
[4]; FXIa over PKK, for 13 based on Ki values
  selectivity vs. PKK: 11 fold
[4]; converted from IC50
  Ki: 5.6 nM
[5]
  inhibition at 99 µM: 2%
[6]
  potency against rat FXIa relative to human FXIa (fold less potent): about 30000 fold
[7]
  inhibition at 99 µM: 18%
[8]
  inhibition at 99 µM: 2%
[9]
  Kd: 0.5 nM
[10]
  IC50: 1 nM
[10]; FXIa
  ligand efficiency (LE): 0.32
[10]; FXIa, term of the ΔG link equation
  ΔG (binding free energy): -12.7 kcal/mol
[10]; compound 13 relative to fragments 5 and 15
  ΔG link (linker contribution): -3.13 kcal/mol
[10]; read-out: FXIa Ki
  Ki: 0.5 nM
[11]
  clearance: 130 mL/min/kg
